Results: ChEMBL document CHEMBL5308541, “MAIP: An Open-Source Tool to Enrich High-Throughput Screening Output and Identify Novel, Druglike Molecules with Antimalarial Activity” (ACS Med Chem Lett, 2023)
“And” between values parts separate entries of the source, which are not always exact repeats. Identical values can stand only once.

Experiments:
Plasmodium falciparum [1] = assay: Re-testing in dose-response curve in 3D7 pLDH assay, at 72h; type: functional, organism-based, Erythrocyte; design: timepoint 72 hour
Plasmodium falciparum [2] = assay: Hit confirmation in dose-response curve in Dd2 pLDH assay, at 72h; type: functional, organism-based, Erythrocyte; design: timepoint 72 hour; conditions: Plasmodium falciparum, Dd2, Erythrocyte, 72 h
Plasmodium falciparum [3] = assay: Hit confirmation in dose-response curve in NF54 nanoGlo assay, at 12h; type: functional, organism-based, Erythrocyte; design: timepoint 12 hour; conditions: Plasmodium falciparum, NF54, Erythrocyte, 12 h
Plasmodium falciparum [4] = assay: Hit confirmation in dose-response curve in NF54 pLDH assay, at 72h; type: functional, organism-based, Erythrocyte; design: timepoint 72 hour; conditions: Plasmodium falciparum, NF54, Erythrocyte, 72 h
[5] = Hit confirmation in dose-response curve in HepG2 cytotoxicity assay, at 72h; type: toxicity, cell-based, Homo sapiens; design: timepoint 72 hour; conditions: human, HepG2 cells
HepG2 = assay: (§1) Re-testing in dose-response curve in HepG2 cytotoxicity assay, at 72h; type: toxicity, cell-based, Homo sapiens; design: timepoint 72 hour; conditions: hepg2
[6] = as §1; type: toxicity, cell-based, Homo sapiens; design: timepoint 72 hour; conditions: human, HepG2 cells
Plasmodium falciparum [7] = assay: Hit confirmation in dose-response curve in NF54 nanoGlo assay, at 72h; type: functional, organism-based, Erythrocyte; design: timepoint 72 hour; conditions: Plasmodium falciparum, NF54, Erythrocyte, 72 h
Plasmodium falciparum [8] = assay: Re-testing in dose-response curve in Dd2 pLDH assay, at 72h; type: functional, organism-based, Erythrocyte; design: timepoint 72 hour
[9] = Plasmodium falciparum, 3D7, Erythrocyte, 72 h
[10] = Plasmodium falciparum, Dd2, Erythrocyte, 72 h

SMILES	IC50 (Plasmodium falciparum [1]; [9])	IC50 (Plasmodium falciparum [1]; erythrocyte)	IC50 (Plasmodium falciparum [2])	IC50 (Plasmodium falciparum [3])	IC50 (Plasmodium falciparum [4])	IC50 (Plasmodium falciparum [7])	IC50 (Plasmodium falciparum [8]; [10])	IC50 (Plasmodium falciparum [8]; erythrocyte)	IC50 at 72 h [5]	IC50 (HepG2)	IC50 at 72 h [6]
COc1ccc2c(O)c(Br)c(C)nc2c1	82.9 nM	90.8 nM	871 nM	> 10000 nM	1480 nM	759 nM			> 10000 nM	21900 nM	21600 nM
CN1CCC(Oc2ccc(NC(=O)c3cn4ccnc4s3)cn2)CC1	2130 nM	2340 nM and 1390 nM	933 nM	6920 nM	1580 nM	1290 nM			> 10000 nM	18700 nM	> 25000 nM
Cc1cnccc1NCCNCc1ccc(OC(C)C)c(Cl)c1	434 nM	501 nM	977 nM	9550 nM	1550 nM	1050 nM			> 10000 nM	6940 nM	6650 nM
CN1CCN(CCCCNC2CC3CCC(C2)N3Cc2ccccc2)CC1 (centres undefined)		1080 nM	1830 nM	> 10000 nM	3020 nM	3020 nM			> 10000 nM	22800 nM and > 8330 nM	
CN(C)C1CCN(CCN[C@H]2CCc3ccc(F)cc32)CC1	> 8330 nM	14800 nM and 12700 nM and 15900 nM	708 nM	> 10000 nM	1320 nM	812 nM			> 10000 nM		> 25000 nM
CN1C2CCC1CC(OC(=O)C1CCC(C(=O)OC3CC4CCC(C3)N4C)(c3ccccc3)c3ccccc31)C2 (centres undefined)			3310 nM	3890 nM	3800 nM	2880 nM			> 10000 nM		
Cc1cccc(Nc2ccnc(Nc3ccc(N4CCN(C)CC4)cc3)n2)c1			1230 nM	> 10000 nM	1290 nM	1150 nM			> 10000 nM		

More lines, in order of falling IC50 (Plasmodium falciparum [3]), values ahead:

IC50 (Plasmodium falciparum [1]; [9])	IC50 (Plasmodium falciparum [1]; erythrocyte)	IC50 (Plasmodium falciparum [2])	IC50 (Plasmodium falciparum [3])	IC50 (Plasmodium falciparum [4])	IC50 (Plasmodium falciparum [7])	IC50 (Plasmodium falciparum [8]; [10])	IC50 (Plasmodium falciparum [8]; erythrocyte)	SMILES	IC50 at 72 h [5]	IC50 (HepG2)	IC50 at 72 h [6]
	1630 nM and 618 nM and 631 nM	1820 nM	9120 nM	2630 nM	3240 nM	1580 nM	1780 nM and 1600 nM	CC1(N2CCC2)CCC(NC[C@H]2CCN(Cc3ccccc3)C2)CC1 (some centres undefined)	> 10000 nM		
449 nM	418 nM	1450 nM	7410 nM	1820 nM	1860 nM			c1ccc2c(CNCCC3CCN(c4ccncc4)CC3)csc2c1	12300 nM	5070 nM	4250 nM
	606 nM and 883 nM	1450 nM	3160 nM	1410 nM	1120 nM			O=C(NC1CCN(CCOc2ccc(Cl)cc2)CC1)c1c[nH]c2ccncc2c1=O	> 10000 nM		
		1380 nM	2950 nM	1380 nM	1700 nM	2300 nM	3110 nM	COc1ccc(-c2cncc(C(=O)NCC3CCN(CCN(C)C)CC3)c2)cc1	> 10000 nM		
714 nM	859 nM	1860 nM	2880 nM	1910 nM	1620 nM		1590 nM	c1ccc(-c2ccnc(C3CCN(CC45CNCC4C5)CC3)n2)cc1 (centres undefined)	> 10000 nM		
	1650 nM and 1320 nM and 1380 nM		2630 nM	1950 nM	1700 nM			Cc1c(CN2CCC(O)(Cn3ccnc3)CC2)[nH]c2c(Cl)cccc12	> 10000 nM	20300 nM	
680 nM	750 nM and 903 nM	1230 nM	2450 nM	1200 nM	1410 nM			Cc1cnccc1N1CCCN(Cc2ccccc2OCCN2CCN(C)CC2)CC1	> 10000 nM		
~3040 nM	3400 nM	1700 nM	1740 nM	2340 nM	1350 nM			Brc1ccc2[nH]c3c(c2c1)CCCC3NC1CCc2[nH]cnc2C1 (centres undefined)	> 10000 nM	4230 nM	4100 nM
> 25000 nM		741 nM	1290 nM	1000 nM	933 nM			CCN1C[C@H](Nc2nc(C)nc3sccc23)[C@@H](OC)C1	> 10000 nM		> 25000 nM
